Patent US10328053B2 (Gilead Sciences, Inc., priority 2016, dated 2019)

Assay: Hepatic Stability Assay (in vitro half-life method)
Type: in vitro ADME
Parameters: dose or concentration left out as unconfirmed
Details: pooled cryopreserved hepatocytes, 37° C., 1×10^6 cells/mL, 0-6 hours, LC-MS/MS, 39.5 hours is the maximum detectable half life, read-out: t½ (converted)
Description: Hepatic Stability Assay The metabolic stability of certain compounds disclosed herein was assessed in vitro in pooled cryopreserved hepatocytes using the in vitro half-life method. Incubations were at 37° C. and final concentrations in the incubations were 1×10^6 cells/mL and […] test concentration of the compound. Aliquots were sequentially removed after 0, 1, 3 and 6 hours and analyzed by LC-MS/MS. In vitro half-life was determined by measuring the rate of disappearance of the compound and then scaled to predicted hepatic clearance using the well-stirred model. […] As such, compounds having a value of 39.5 may have a half live that exceeds 39.5 hours.

SMILES | half-life [h]
CNC(=O)C1(NC(=O)C(=O)c2c(C)c(C(=O)Nc3ccc(F)c(Cl)c3)n3c2C[C@H]2C[C@H]23)CC(F)(F)C1 [Example 5, (1aR,6aR)—N-(3-chloro-4-fluorophenyl)-5-(2-((3,3-difluoro-1-(methylcarbamoyl)cyclobutyl)amino)-2-oxoacetyl)-4-methyl-1,1a,6,6a-tetrahydrocyclopropa[b]pyrrolizine-3-carboxamide] | 5.2
Cc1c(C(=O)C(=O)NC2(CO)CC(F)(F)C2)c2n(c1C(=O)Nc1ccc(F)c(Cl)c1)CCC2 [Example 117, N-(3-chloro-4-fluorophenyl)-7-(2-((3,3-difluoro-1-(hydroxymethyl)cyclobutyl)amino)-2-oxoacetyl)-6-methyl-2,3-dihydro-1H-pyrrolizine-5-carboxamide] | 10.5
Cc1nnc(C2(NC(=O)C(=O)c3c(C)c(C(=O)Nc4cc(F)c(F)c(F)c4)n4c3CCC4)CC2)o1 [Example 65, 6-methyl-7-(2-((1-(5-methyl-1,3,4-oxadiazol-2-yl)cyclopropyl)amino)-2-oxoacetyl)-N-(3,4,5-trifluorophenyl)-2,3-dihydro-1H-pyrrolizine-5-carboxamide] | 14.8
Cc1c(C(=O)C(=O)NC2(c3c[nH]nn3)CC2)c2n(c1C(=O)Nc1cc(F)cc(Cl)c1)CCC2 [Example 101, 7-(2-((1-(1H-1,2,3-triazol-4-yl)cyclopropyl)amino)-2-oxoacetyl)-N-(3-chloro-5-fluorophenyl)-6-methyl-2,3-dihydro-1H-pyrrolizine-5-carboxamide] | 7
Cc1c(C(=O)C(=O)NC2(CO)CC(F)(F)C2)c2n(c1C(=O)Nc1ccc(F)c(F)c1)CCC2 [Example 118, 7-(2-((3,3-difluoro-1-(hydroxymethyl)cyclobutyl)amino)-2-oxoacetyl)-N-(3,4-difluorophenyl)-6-methyl-2,3-dihydro-1H-pyrrolizine-5-carboxamide] | 15.2
CNC(=O)C1(NC(=O)C(=O)c2c(C)c(C(=O)Nc3ccc(F)c(Cl)c3)n3c2CCC3C)CC(F)(F)C1 (racemic) [Example 18, N-(3-chloro-4-fluorophenyl)-7-(2-((3,3-difluoro-1-(methylcarbamoyl)cyclobutyl)amino)-2-oxoacetyl)-3,6-dimethyl-2,3-dihydro-1H-pyrrolizine-5-carboxamide] | 6
Cc1c(C(=O)C(=O)NC2(CN3CC4(COC4)C3)CC(F)(F)C2)c2n(c1C(=O)Nc1ccc(F)c(Cl)c1)CCC2 [Example 10, 7-(2-((1-((2-oxa-6-azaspiro[3.3]heptan-6-yl)methyl)-3,3-difluorocyclobutyl)amino)-2-oxoacetyl)-N-(3-chloro-4-fluorophenyl)-6-methyl-2,3-dihydro-1H-pyrrolizine-5-carboxamide] | 1
Cc1c(C(=O)C(=O)NC2(c3nncs3)CC2)c2n(c1C(=O)Nc1ccnc(C(F)F)c1)[C@@H]1C[C@@H]1C2 [Example 62, (1aR,6aR)-5-(2-((1-(1,3,4-thiadiazol-2-yl)cyclopropyl)amino)-2-oxoacetyl)-N-(2-(difluoromethyl)pyridin-4-yl)-4-methyl-1,1a,6,6a-tetrahydrocyclopropa[b]pyrrolizine-3-carboxamide] | 5.3
CNC(=O)C1(NC(=O)C(=O)c2c(C)c(C(=O)Nc3ccc(F)c(Cl)c3F)n3c2CCC3)CC(F)(F)C1 [Example 127, N-(3-chloro-2,4-difluorophenyl)-7-(2-((3,3-difluoro-1-(methylcarbamoyl)cyclobutyl)amino)-2-oxoacetyl)-6-methyl-2,3-dihydro-1H-pyrrolizine-5-carboxamide] | 15.2
CNC(=O)C1(NC(=O)C(=O)c2c(C)c(C(=O)Nc3ccc(F)c(Cl)c3)n3c2CCC3)CC(F)(F)C1 [Example 3, N-(3-chloro-4-fluorophenyl)-7-(2-((3,3-difluoro-1-(methylcarbamoyl)cyclobutyl)amino)-2-oxoacetyl)-6-methyl-2,3-dihydro-1H-pyrrolizine-5-carboxamide] | 35.1
Cc1c(C(=O)C(=O)NC2(C)CS(=O)(=O)C2)c2n(c1C(=O)Nc1ccc(F)c(Cl)c1)[C@@H]1C[C@@H]1C2 [Example 71, (1aR,6aR)—N-(3-chloro-4-fluorophenyl)-4-methyl-5-(2-((3-methyl-1,1-dioxidothietan-3-yl)amino)-2-oxoacetyl)-1,1a,6,6a-tetrahydrocyclopropa[b]pyrrolizine-3-carboxamide] | 7.3
Cc1c(C(=O)C(=O)NC2(C#N)CC(F)(F)C2)c2n(c1C(=O)Nc1ccc(F)c(F)c1)CCC2 [Example 131, 7-(2-((1-cyano-3,3-difluorocyclobutyl)amino)-2-oxoacetyl)-N-(3,4-difluorophenyl)-6-methyl-2,3-dihydro-1H-pyrrolizine-5-carboxamide] | 7.6
Cc1c(C(=O)C(=O)NC2(C)C[S+]([O-])C2)c2n(c1C(=O)Nc1ccc(F)c(F)c1)CCC2 (stereo not shown) [Example 145, N-(3,4-difluorophenyl)-6-methyl-7-(2-((3-methyl-1-oxidothietan-3-yl)amino)-2-oxoacetyl)-2,3-dihydro-1H-pyrrolizine-5-carboxamide] | 9.7
Cc1c(C(=O)C(=O)NC2(c3c[nH]nn3)CC(F)(F)C2)c2n(c1C(=O)Nc1ccnc(C(F)F)c1F)CCC2 [Example 59, 7-(2-((3,3-difluoro-1-(1H-1,2,3-triazol-4-yl)cyclobutyl)amino)-2-oxoacetyl)-N-(2-(difluoromethyl)-3-fluoropyridin-4-yl)-6-methyl-2,3-dihydro-1H-pyrrolizine-5-carboxamide] | 22.3
Cc1c(C(=O)C(=O)NC2(C(F)(F)F)COC2)c2n(c1C(=O)Nc1ccnc(C(F)F)c1F)C[C@H](F)C2 [Example 150, (R)—N-(2-(difluoromethyl)-3-fluoropyridin-4-yl)-2-fluoro-6-methyl-7-(2-oxo-2-((3-(trifluoromethyl)oxetan-3-yl)amino)acetyl)-2,3-dihydro-1H-pyrrolizine-5-carboxamide] | 16.6
Cc1c(C(=O)C(=O)NC2(c3c[nH]nn3)CC2)c2n(c1C(=O)Nc1cc(Cl)c(F)cc1F)CCC2 [Example 91, 7-(2-((1-(1H-1,2,3-triazol-4-yl)cyclopropyl)amino)-2-oxoacetyl)-N-(5-chloro-2,4-difluorophenyl)-6-methyl-2,3-dihydro-1H-pyrrolizine-5-carboxamide] | 19.6
Cc1c(C(=O)C(=O)N[C@](C)(CO)C(F)(F)F)c2n(c1C(=O)Nc1ccc(F)c(F)c1)CCC2 [Example 133, (R)—N-(3,4-difluorophenyl)-6-methyl-7-(2-oxo-2-((1,1,1-trifluoro-3-hydroxy-2-methylpropan-2-yl)amino)acetyl)-2,3-dihydro-1H-pyrrolizine-5-carboxamide] | 12.5
CNC(=O)C1(NC(=O)C(=O)c2c(C)c(C(=O)Nc3ccc(F)cc3)n3c2C[C@H]2C[C@H]23)CC(F)(F)C1 [Example 95, (1aR,6aR)-5-(2-((3,3-difluoro-1-(methylcarbamoyl)cyclobutyl)amino)-2-oxoacetyl)-N-(4-fluorophenyl)-4-methyl-1,1a,6,6a-tetrahydrocyclopropa[b]pyrrolizine-3-carboxamide] | 28.8
Cc1c(C(=O)C(=O)NC2(c3nncs3)CC2)c2n(c1C(=O)Nc1ccc(F)c(F)c1)[C@@H]1C[C@@H]1C2 [Example 61, (1aR,6aR)-5-(2-((1-(1,3,4-thiadiazol-2-yl)cyclopropyl)amino)-2-oxoacetyl)-N-(3,4-difluorophenyl)-4-methyl-1,1a,6,6a-tetrahydrocyclopropa[b]pyrrolizine-3-carboxamide] | 5.4
